# Reference: article PMC4269221 (Cell reports, 2014)
# “Also recorded” adds a separate entry of the source.
# Assays:
# [1] = tested on: p53-Mdm4 complexes in Saos-2 p53-Mdm4 ReBiL cells; experiment: Real-time BiLC; assay type: cell-based; settings: 37 °C; for disruption of preformed p53-Mdm4 complexes in living cells: pre-induced cells, doxycycline withdrawal, 10% FBS media
# [2] = tested on: Mdm2-Mdm4 N-terminal BiLC pair (U2OS Mdm4_111 - Mdm2_108 ReBiL cells); experiment: ReBiL assay of the Mdm2-Mdm4 N-terminal BiLC pair in living cells; assay type: cell-based; settings: 500 ng/ml doxycycline, 24 hours, 37 °C
# [3] = tested on: p53-Mdm2 complexes in cell lysates; experiment: BiLC assay using cell lysates, p53-Mdm2; assay type: biochemical; settings: absence of FBS, RT 10 minutes, luminescence at 26 °C
# Saos-2 cells = experiment: Lactate dehydrogenase; assay type: cell-based; settings: absence of serum, 25 μM and 10 μM, 6 hr
# Saos-2 cells (p53-null) = experiment: CellTiter Glo cell viability assay, Saos-2; settings: Saos-2 ReBiL cells, 6 hr, CellTiter Glo (Figure 5)
# [4] = tested on: p53-Mdm4 complexes in cell lysates; experiment: BiLC assay using cell lysates, p53-Mdm4; assay type: biochemical; settings: absence of FBS, RT 10 minutes, luminescence at 26 °C
# [5] = molecular target: p53-Mdm2 complexes in Saos-2 p53-Mdm2 ReBiL cells (Homo sapiens, UniProt Q00987); experiment: Real-time BiLC; assay type: cell-based; settings: pre-induced cells, doxycycline withdrawal, 10% FBS media, 37 °C
# Chain of p53-Mdm2 complexes in Saos-2 p53-Mdm2 ReBiL cells (Q00987 whole entry, the tested form may be a part, one chain of several): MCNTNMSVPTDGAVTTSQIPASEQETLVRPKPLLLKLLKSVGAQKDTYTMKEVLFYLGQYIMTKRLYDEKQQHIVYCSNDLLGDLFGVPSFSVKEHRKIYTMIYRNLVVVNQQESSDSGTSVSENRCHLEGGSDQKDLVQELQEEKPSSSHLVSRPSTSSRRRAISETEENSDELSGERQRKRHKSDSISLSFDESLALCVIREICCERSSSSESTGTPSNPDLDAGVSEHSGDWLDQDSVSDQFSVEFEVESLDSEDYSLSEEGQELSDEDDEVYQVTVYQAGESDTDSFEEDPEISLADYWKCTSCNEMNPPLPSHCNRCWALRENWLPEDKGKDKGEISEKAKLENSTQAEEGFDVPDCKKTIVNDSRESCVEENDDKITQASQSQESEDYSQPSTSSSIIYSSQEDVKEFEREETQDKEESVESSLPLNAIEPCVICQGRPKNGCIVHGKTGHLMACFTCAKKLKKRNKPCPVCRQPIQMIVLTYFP
Compound,disruption of preformed p53-Mdm4 complexes in living cells [1],Mdm2-Mdm4 N-terminal domain BiLC signal (association) [2],p53-Mdm2 disruption in lysate BiLC assay [3],LDH leakage / cell membrane damage (Saos-2 cells),p53-independent cytotoxicity at high concentrations (Saos-2 cells (p53-null)),"p53-Mdm4 BiLC signal (newly synthesized complexes) ([1]; doxycycline 500 ng/ml and compound added at Time = 0, 24-48 hr)",p53-Mdm4 disruption in lysate BiLC assay [4],disruption of preformed p53-Mdm2 complexes in living cells [5]
COc1ccc(C2=N[C@@H](c3ccc(Cl)cc3)[C@@H](c3ccc(Cl)cc3)N2C(=O)N2CCNC(=O)C2)c(OC(C)C)c1 [Nutlin-3a],not affected; also recorded: has no effect,did not promote,efficiently disrupted,did not induce membrane leakage,induce p53-independent cytotoxicity,,,
CCOc1cc(/C=C2/C(=O)N(c3ccccc3)N=C2C)cc(Cl)c1OCC(=O)OC [SJ-172550],,,no activity,,,No decrease; also recorded: lacks p53-Mdm4 disruption activity,no activity,
RO-5963,no effect,increased the BiLC signal; also recorded: enhances,no activity,,,,no activity,limited ability to disrupt; also recorded: moderately reduces
